The record followed here is the NIST ThermoML archive (doi:10.1021/je900599q).

Numbers after ± are expanded uncertainties.

The conditions of this data set: 298.2 K; 101.33 kPa; Liquid; Pycnometric method.

One may read the mass density as the mass of a sample divided by its volume.

Consider `CO` [methanol], for which the mass density was determined as 796 ± 1 kg/m3.
